From US9546144B2, “Bifunctional compounds” (University of Pittsburgh—of the Commonwealth System of …, priority 2011, dated 2017) come the findings set out here.

The target of one data set is T1, PKD1 (Homo sapiens, UniProt Q15139).
T1 sequence (Q15139 1-912): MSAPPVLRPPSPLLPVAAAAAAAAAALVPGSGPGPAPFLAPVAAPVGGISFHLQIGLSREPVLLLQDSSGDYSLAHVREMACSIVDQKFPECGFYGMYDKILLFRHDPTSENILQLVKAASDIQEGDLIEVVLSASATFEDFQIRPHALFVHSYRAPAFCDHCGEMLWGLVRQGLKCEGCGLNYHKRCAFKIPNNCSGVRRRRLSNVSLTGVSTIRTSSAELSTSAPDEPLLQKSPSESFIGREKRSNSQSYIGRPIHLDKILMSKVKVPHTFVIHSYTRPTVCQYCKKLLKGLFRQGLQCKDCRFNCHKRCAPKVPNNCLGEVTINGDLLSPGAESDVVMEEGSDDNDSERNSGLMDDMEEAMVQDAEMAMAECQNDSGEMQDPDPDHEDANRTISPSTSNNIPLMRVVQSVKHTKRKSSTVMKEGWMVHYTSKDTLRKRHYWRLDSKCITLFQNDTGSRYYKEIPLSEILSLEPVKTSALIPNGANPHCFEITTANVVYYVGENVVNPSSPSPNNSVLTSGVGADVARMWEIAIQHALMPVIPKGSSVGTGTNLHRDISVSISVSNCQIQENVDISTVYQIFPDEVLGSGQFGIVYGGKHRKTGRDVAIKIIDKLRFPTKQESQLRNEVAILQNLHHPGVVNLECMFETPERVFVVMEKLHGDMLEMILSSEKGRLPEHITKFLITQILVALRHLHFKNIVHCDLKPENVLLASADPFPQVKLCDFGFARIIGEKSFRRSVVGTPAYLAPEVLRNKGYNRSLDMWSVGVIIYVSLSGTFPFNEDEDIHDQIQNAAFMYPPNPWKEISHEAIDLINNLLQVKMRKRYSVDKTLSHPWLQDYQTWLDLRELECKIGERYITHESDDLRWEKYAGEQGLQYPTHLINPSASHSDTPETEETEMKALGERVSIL
The data set is described as follows: radiometric PKD1 inhibition assay, cosolvent interference. In kind it is biochemical. As to conditions: stock solutions in 25% 3/NMP. Here is the method:
FIG. 8. Plot of PKD1 activity with compound concentrations of 1 μM. […] The % PKD1 activity is reported as the mean, and error bars represent SEM (n=3). The % PKD1 activity was determined as previously described.
FIG. 9. Plot of PKD1 activity with compound concentrations of 10 μM. […] The % PKD1 activity is reported as the mean, and error bars represent SEM (n=3). The % PKD1 activity was determined as previously described.
Recently, a series of compounds with nanomolar to micromolar inhibitory activity against the serine/threonine protein kinase D (PKD) isoform PKD1 was disclosed (FIG. 7). Several lead structures, especially those containing a pyrimidine moiety, suffered from poor solubility not only in aqueous media but also in DMSO. To test the feasibility of using sulfoxide 3 as a cosolvent for in vitro assays, its use in the radiometric PKD1 inhibition assay was examined. Inhibitory activity at two concentrations (1 μM and 10 μM) was measured using compound stock solutions in three formulations: DMSO, NMP, and 25% 3/NMP (FIGS. 8 and 9).

Data set [1] is described as follows: storage in 25% w/w solutions of 3 and NMP. The format is physicochemical. As to conditions: 25% w/w 3 and NMP at −20° C. Here is the method: Because sulfoxide 3 is a solid, it would have to be mixed with an appropriate water-soluble cosolvent to act as a compound storage additive. NMP was chosen for exploring this potential application due to its thermal stability and low toxicity. […] The compound test set (FIG. 2) was stored in 25% w/w solutions of 3 and NMP for 6 weeks at −20° C.

Data set [2] relates to bone marrow stromal cell line derived from C57BL/6NTac mice. The data set can be described thus: in vitro clonogenic radiation survival curves. In kind it is cell-based, mouse. Particulars: 100 μM added 10 min after irradiation; control 1.9±0.1, p=0.0444. The procedure: FIG. 12. In vitro radioprotection and mitigation of bone marrow stromal cells. In vitro survival curves were performed using a bone marrow stromal cell line derived from C57BL/6NTac mice. Cells were incubated in 100 μM MMS350 for one hour before irradiation or was added to the cells 10 min after irradiation. Cells were irradiated to doses ranging from 0 to 8 Gy, plated in 4 well tissue culture plates, incubated for 7 days at 37° C. in a humidified CO2 incubator, and stained with crystal violet. Colonies of greater than 50 cells were counted and analyzed using a linear quadratic model or single-hit, multi-target model.
The murine C57BL/6 bone marrow stromal cell line (Epperly M W, Sikora C A, Defilippi S, Gretton J E, Greenberger J S. Bone marrow origin of myofibroblasts in irradiation pulmonary fibrosis. Am J Resp Molecular Cell Biology 2003; 29:213-224) and its use in clonogenic radiation survival curves has been described (Epperly M W, Gretton J E, Bernarding M, Nie S, Rasul B, Greenberger J S. Mitochondrial localization of copper/zinc superoxide dismutase (Cu/ZnSOD) confers radioprotective functions in vitro and in vivo. Radiation Research 2003; 160:568-578).
Cell lines were irradiated at dose rate of 70 cGy per minute using a Cesium Gamma Cell Irradiator according to published methods. […]

Take `CC1(C[S+]([O-])CC2(C)COC2)COC1` [compound 3, 3,3′-Sulfinylbis(methylene)bis(3-methyloxetane)]: the “interference with the standard PKD1 inhibition assay” value on PKD1 is on record as “did not interfere”. Moreover, the “behaviour of 3 in the storage solution” value in data set [1] was “partly precipitated from the solution”. The “D0 of the survival curve” value in data set [2] is 2.4±0.3.
